The source of these data is publication PMC6934184, “Selective DNA-PKcs inhibition extends the therapeutic index of localized radiotherapy and chemotherapy” (The Journal of Clinical Investigation, 2019).

The target of the assay is T1, NEK6 (Homo sapiens, UniProt Q9HC98).
T1 construct: purchased Thermo Fisher Scientific (Life Technologies) SelectScreen
As to the kind of experiment: SelectScreen Z'LYTE. Format: biochemical. The procedure, abridged:
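SelectScreen broad panel; activity (Z'LYTE, Adapta) plus binding formats. ATP: Km app for CSF1R Z'LYTE; 10 for CAMK1 Adapta. Readout = % per kinase.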

T1 sequence (Q9HC98 whole entry): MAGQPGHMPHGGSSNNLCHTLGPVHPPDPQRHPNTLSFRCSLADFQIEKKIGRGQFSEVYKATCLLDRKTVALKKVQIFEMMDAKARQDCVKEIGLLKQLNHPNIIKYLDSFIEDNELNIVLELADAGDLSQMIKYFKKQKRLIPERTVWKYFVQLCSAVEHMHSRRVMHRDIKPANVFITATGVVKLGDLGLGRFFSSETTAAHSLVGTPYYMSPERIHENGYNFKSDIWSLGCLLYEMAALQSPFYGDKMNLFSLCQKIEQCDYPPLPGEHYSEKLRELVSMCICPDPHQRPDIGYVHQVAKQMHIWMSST

The inhibition is the drop in the measured response relative to a control, in per cent. On to `CN(C(=O)CN1CCOCC1)c1ccc2sc3c(-c4cccc5c(=O)cc(N6CC7CCC(C6)O7)oc45)cccc3c2c1` [NU5455], for which the inhibition at 1 µM is -19.8%.
